# Test results taken from a melting point compilation (Tetko et al.; mined from patent text by program, amines drawn as free bases though some values may be those of a salt).
# Residues, ends and D or L forms follow the SMILES beside them. *: point of attachment. Cbz = O=C(OCc1ccccc1)*
row,SMILES,melting point [°C]
1,CC(=O)OC1CC2CCC3C(CCC4(C)C(O)C(N5CCCCC5)CC34)C2(C)CC1N1CCCCC1 (stereo unspecified),183
2,N#Cc1cccc(-c2cccs2)n1,88.2 to 88.6
3,CCc1cc(C=O)ccc1N=C1SCC2(CCCC2)N1C1CCCC1,104 to 105
4,CC(=O)C(CCCc1ccccc1)n1cnc2c(=O)[nH]c(Cc3ccc(OC(F)F)c(N)c3)nc21 (stereo unspecified),149 to 150
5,Cc1cc(C(=O)O)ccc1C(N)C(=O)O (stereo unspecified),> 250
6,CN1CCC(n2ccc3ccccc32)CC1,58
7,Cc1ncn(Nc2ccccc2)c1C,178
8,Cc1ccc(-n2c(-c3sc(Nc4ccc(Cl)cc4)nc3-c3ccccc3)nc3ccccc3c2=O)cc1,> 275
9,COc1ccc(C(=O)Nc2c(C)c(C)c3oc(C)c(-c4ccc(F)cc4)c3c2C)cc1,225 to 227
10,CCOC(=O)c1cc2c(C=O)cc3c4ccccc4ccc3c2o1,209 to 212
11,O=S1(=O)N=C(NCc2ccco2)Nc2cc(Cl)sc21,224 to 225
12,Ic1ccc2c(c1)Sc1ccc(I)cc1S2,169 to 170
13,CC(C)Cn1c(CNC(=O)OC(C)(C)C)c(-c2ccc(F)cc2)c2cc(/C=C/C(N)=O)ccc2c1=O,161 to 163
14,CNC(=O)C1CC(C)(C)Oc2ccc([N+](=O)[O-])cc21 (stereo unspecified),161 to 162
15,Cc1cccc(CC2CCN(C(=O)C(=O)Nc3ccc4[nH]c(=O)oc4c3)CC2)c1,204 to 208
16,COc1cc2cc(C(=O)N3CC(CCl)c4c3cc(NCCNC(=O)OC(C)(C)C)c3ccccc43)[nH]c2c(OC)c1OC (stereo unspecified),110 to 115
17,CCCCCOC(=O)C1CC(Br)=NN1c1ncccc1Cl (stereo unspecified),39 to 42
18,CC(C)COc1ccc(C(=O)N/C(=C\c2ccc(OCC(F)(F)F)cc2)C(=O)NCCO)cc1,176 to 178
19,CC(=O)Nc1c(C(=O)c2ccccc2C)[nH]c2cc(Cl)ccc12,140 to 142
20,C(=Nc1ncc[nH]1)c1ccccc1,122
21,Cc1ccc2c(=O)cc(C#N)oc2c1,155 to 156
22,CC(C)n1nc(-c2sc(NC(=O)c3ccccn3)nc2-c2ccccc2)ccc1=O,245 to 246
23,CC(C)N(Cc1ccc(Br)cc1)C(=S)Nc1ccccc1,134
24,CCCCCCCCCCCCCCc1ccc(C(=O)O)[nH]1,68 to 69

row,SMILES,melting point [°C]
1,CC(=O)N1CCN(c2cccc(F)n2)CC1,102 to 103
2,CCN(CC)c1ccc(CN2C(=O)C(C)(c3ccccc3Cl)c3cc(Cl)ccc32)c(OC)c1 (stereo unspecified),198
3,CC(C)=CCN(CCC12CC3CC(CC(C3)C1)C2)C(=O)NCCCc1ccncc1,93 to 96
4,NCC1CCCN(c2c(F)cc3c(=O)c(C(=O)O)cn(C4CC4)c3c2F)C1 (stereo unspecified),242 to 243
5,CN(C)C(=O)c1c(CNS(=O)(=O)c2cccc(Cl)c2)nn(-c2ccc(Cl)cc2Cl)c1-c1ccc(Cl)cc1,178
6,CS(=O)(=O)Nc1cc(CC(=O)O)cc2c1NC(C(F)(F)F)CC2 (stereo unspecified),189 to 191
7,CCOC(=O)c1c(-c2ccccc2)n(C)c(-c2ccccc2)cc1=O,177 to 179
8,c1ccc(Sc2ccc[nH]2)cc1,86 to 87
9,Cc1c2n(c3ccccc13)C(=O)C(C(O)c1ncn(C(c3ccccc3)(c3ccccc3)c3ccccc3)c1C)CC2 (stereo unspecified),153 to 169
10,CCOC(=O)NNc1ccc(-c2ccc(Cl)cc2)nn1,190 to 192
11,CC1S/C(=N/N=C\c2ccc(-c3ncn(-c4ccc(OC(F)(F)F)cc4)n3)cc2)N(c2ccccc2C2CC2)C1=O (stereo unspecified),112 to 115
12,N#Cc1ncc(NCCO)nc1N1CCN(c2ccc(F)cc2)CC1,149 to 151
13,COc1ccccc1-c1ccc(C(=O)N2Cc3ccc(C(=O)N(C)CC(O)CO)n3Cc3ccccc32)cc1C (stereo unspecified),174 to 184
14,OC1CCc2c(Cl)cc(Cl)c(I)c21 (stereo unspecified),95 to 100
15,C=CCc1cc2c(c(CC=C)c1O)OCC(=O)N2CC=C,91 to 92
16,COc1ccc(NC(=O)C2(C(=O)O)CC2)cc1,133 to 136
17,CCCCC[C@H]1CC[C@H](c2cnc(-c3ccc(C#N)cc3)nc2)CC1,100
18,O=C(Nc1n[nH]c2cc(Cl)ccc12)c1ccccn1,177
19,CCOc1cc2nc[nH]c(=O)c2cc1OCC,255 to 257
20,Cc1ccc(S(=O)(=O)n2ccc3cc(F)cnc32)cc1,160
21,COC(=O)C1=C(C)N=C(OC)N(C(=O)Oc2ccc([N+](=O)[O-])cc2)C1c1ccc(F)c(F)c1 (stereo unspecified),172 to 174
22,NC(CCOc1ccc(C(=NO)C(=O)NC2CN(C(C(=O)O)c3ccc(OCc4ccccc4)cc3)C2=O)cc1)C(=O)O (stereo unspecified),164 to 168
23,O=C(c1ccccc1)c1cccc(OCCn2ccnc(N3CCNCC3)c2=O)c1,69 to 70
24,O=C(O)CCC(=O)c1cc(Br)cc(Br)c1,137 to 138

row,SMILES,melting point [°C]
1,COc1ccc(COC(=O)C2=C(C3CCCO3)OC[C@@H]3[C@H](NC(c4ccccc4)(c4ccccc4)c4ccccc4)C(=O)N23)cc1 (stereo partly specified),129 to 131
2,Cc1ccc2nc(C3(c4ccc(S(N)(=O)=O)cc4)C=C(C(F)(F)C(F)(F)F)NN3)sc2c1 (stereo unspecified),234 to 235
3,Cc1cc(=O)n(-c2cc(C(=O)OC(C)C)c(Cl)cc2F)c(=O)[nH]1,134 to 136
4,O=Cc1cccc(/C=C/c2ccc3cc(F)ccc3n2)c1,110 to 111
5,COc1cccc([C@H](O)C[C@@H]2CCCN2C)c1 (relative stereo),79 to 82
6,O=c1oc(C=Cc2ccccc2)nc2ccccc12,145 to 147
7,CC(C)(C)NC(=O)c1ncccc1CCc1ccc(F)cc1,59 to 61
8,Cc1cc(SC2=C(O)CC(CCc3ccncc3)(C(C)C)OC2=O)c(C(C)(C)C)cc1CO (stereo unspecified),140 to 155
9,O=C(Nc1ccc(OCc2ccncc2)c2ccccc12)c1cc(F)cc(OC2CCCCC2)c1,176 to 178
10,CCOC(=O)/C(C)=C(/C)c1cccc(OCc2nc(-c3ccc(C(F)(F)F)cc3)oc2C)c1,115 to 116
11,Cn1c(C(F)(F)F)nc(-c2ccc(F)cc2)c1-c1ccc(S(C)(=O)=O)cc1,187 to 189
12,CN(C)c1nc(Cl)nc(NCC(F)(F)F)n1,181 to 184
13,Cn1c(=S)n(CCN2CCC(Nc3nc4ccccc4n3Cc3ccco3)CC2)c(=O)c2ccccc21,188
14,O=C1COc2cc(NC(=O)C(=O)N3CCC(C(O)c4ccccc4)CC3)ccc2N1 (stereo unspecified),195 to 197
15,c1ccc2c(c1)CCN2Nc1ccncc1,125 to 126
16,CCS(=O)(=O)N[C@H](C(=O)NCCc1ccc(OC/C=C\c2ccc(Cl)cc2)c(OC)c1)C(C)C,141 to 143
17,COc1ccc(/C=C(\C#N)c2cc(OC)c(OC)c(OC)c2)cc1[N+](=O)[O-],158 to 159
18,C=CCNc1nc(NC)c2cc([N+](=O)[O-])ccc2n1,211 to 212
19,CC(C)c1ccc(F)c(C(C)C)c1NC(=O)CN1CCN(CCSc2nc3ccccc3o2)CC1,142 to 144
20,N=C(N)c1ccc2cc(OC(=O)CCCC3CCCCC3)ccc2c1,189 to 193
21,CC1=NN(CCN2CCOCC2)S(=O)(=O)c2sc(S(N)(=O)=O)cc21,160 to 162
22,CCCCOCCOc1ccc(-c2ccc(N3CCC(=O)C3)c(C=C(C)C(=O)OCC)c2)cc1,98.5 to 99
23,O=C(O)C1CCN(c2nnc(NCc3ccc4c(c3)OCO4)c3cnccc23)CC1,205 to 206
24,CC(C)(C)Nc1c(NCc2ccc(F)cc2C(F)(F)F)c(=O)c1=O,192 to 194

row,SMILES,melting point [°C]
1,CC[C@@]12C[C@H](O)[C@](O)(c3c(F)cccc3F)C[C@H]1CCc1cc(O)ccc12,198 to 200
2,CCCCCCCCCCc1ccc(C(=O)N(O)CCCC(=O)O)cc1,98 to 100
3,O=C(NC1N=C(c2ccccc2F)c2ccccc2NC1=O)c1ccc(C(F)(F)F)cc1 (racemic),209 to 211
4,CCCCc1nc2c(N)nc3ccccc3c2n1OC(C)C,118 to 119
5,Nc1ccccc1NC(=O)c1ccc(CCC(=O)NCc2cccnc2)cc1,168 to 170
6,CCCCc1ncc(CC(NC(=O)CC)C(=O)O)n1Cc1ccccc1Cl (stereo unspecified),203 to 205
7,COc1cc(CO)ccc1OCc1nc(-c2cccnc2)oc1C,117 to 118
8,CN(C(=O)c1ccc2c(c1)nc(NC(=O)c1cccs1)n2CCCC(=O)O)C1CCCCC1,256 to 258
9,Cn1nc(-c2c(F)cccc2Cl)nc1-c1ccc(CBr)c(Cl)c1,124 to 126
10,CCCNc1nc(N)nc2c1ncn2C1C=CC(CO)C1 (stereo unspecified),138 to 140
11,CO/C=C(/C(=O)OC)c1ccccc1CSc1nc2ccccc2s1,77 to 78
12,COCCCS(=O)(=O)NC(=O)/C=C/c1ccc(OC(C)C)cc1Oc1ncc(C(F)(F)F)cc1Cl,130
13,Cc1ccc(-c2cc3ccc(C(=O)O)cc3o2)cc1,270 to 272
14,CCN(C(=O)C(C)CSC)c1sc(-c2cccnc2)nc1Cl (stereo unspecified),79 to 81
15,COC(=O)c1ccc(-c2nc(-c3ccccc3C(F)(F)F)cs2)cc1,122 to 123
16,CCOC(=O)CNC(=O)CNCc1ccc(-c2cc3ncnc(Nc4ccc5[nH]ccc5c4)c3s2)cc1,98 to 115
17,CC(=O)COc1ccc(Cc2ccccc2)cc1,51 to 52
18,O=C(O)CCCC(=O)Oc1cccc(-c2cn3c(n2)sc2ccccc23)c1,168 to 171
19,C#Cc1c(C#N)nn(-c2c(Cl)cc(OC(F)(F)F)cc2Cl)c1N,176
20,COC(=O)C(Cc1ccccc1)NC(=O)C(CC(N)=O)NC(=O)C(CO)NC(=O)OCc1ccccc1 (stereo not drawn) (Cbz-Ser-Asn-Phe-OMe; configuration not given here),180 to 183
21,O=C(Nc1ccc(C(=O)N2CCCC(=NO)c3ccccc32)cc1)c1cc(Cl)cc(Cl)c1,272 to 273
22,CC(C)(C)OC(=O)NCCNC(=O)c1ccc(CO)cc1,117 to 119
23,COC(=O)c1ccc(OCCNC(=O)C2Cc3ccccc3N2S(=O)(=O)c2ccc(-c3cccc(C(F)(F)F)c3)cc2)cc1C(F)(F)F (stereo unspecified),75 to 79
24,COC(=O)c1nc(I)cc(N)c1Cl,152 to 153
